Reference: patent publication US7473437B2, “Method of forming fluorescent image, fluorescent image, and ink-jet recording method” (Canon Kabushiki Kaisha, priority 2004, dated 2009)
“And” between values parts separate entries of the source, which are not always exact repeats. Equal entries are not always repeated.

Key:
Format in all cases: physicochemical
[1] = Light absorption spectrum of coloring materials
Method: Next, the multiple fluorescent coloring materials will be described more specifically with reference to multiple fluorescence examples and reference examples. Here, measurement values obtained with purified water diluted solutions of coloring materials were used for an absorption wavelength region, a maximum absorption wavelength region, and a fluorescence wavelength region. Using an absorption spectrometer, absorption wavelengths were measured. A diluted solution was prepared in such a manner that the absorbance thereof was in the range of 0.5 to 0.7. A higher region from a base line as the absorption peak of the coloring material was defined as an absorption wavelength region, and the peak value was defined as a maximum absorption wavelength. In addition, for fluorescence wavelengths, the measurement conditions were set so that the fluorescence intensities were not beyond the measurement threshold value. Then, fluorescence wavelengths were measured by using the diluted solution used in the measurement of absorbance and by fixing the excitation wavelengths of the first and second coloring materials at predetermined wavelengths. A region higher than the base line was defined as a fluorescent emission wavelength region.
The absorption wavelength regions of the first and second coloring materials were measured using a spectrophotometer U-3200 (trade name; manufactured by Hitachi Ltd.) after the dye had been diluted 100,000-fold with purified water. The absorption wavelength region of the first coloring material ranged from 450 to 620 nm, and the maximum absorption wavelength thereof was 565 nm. In addition, the absorption wavelength region of the second coloring material ranged from 300 to 450 nm, and the maximum absorption wavelength thereof was 372 nm.

[2] = Fluorescent coloring material content causing concentration quenching; conditions: image printed on a recording material
Method: The following respective components as ink composition to be used were mixed and sufficiently stirred, and the resultant was dissolved and/or dispersed. After that, the resultant was filtered through a Phloropore filter (trade name; manufactured by Sumitomo Electric Industries, Ltd.) having a pore size of 0.1 μm under pressure to prepare each ink. An ink 1, an ink 2, an ink 3, and an ink 5 were defined as inks of Examples and an ink 4 was defined as Reference Example. The content of each fluorescent coloring material in ink for causing the concentration quenching of a fluorescent image printed on a recording material is 0.3% by mass or more for C.I. Acid Red 52, 2.0% by mass or more for C.I. Acid Red 92, or more than 2.0% by mass for the compound (A).
In each of the above ink compositions, the fluorescence intensity of each of the inks 1 to 4 was measured by means of a commercially available fluorescence measuring device […] (trade name; manufactured by JASCO Corporation).

[3] = Fluorescent emission and excitation spectra of evaporated ink (FP-750); conditions: standard excitation wavelength 254 nm
Method: At first, a predetermined amount (in this case, 0.3% by mass with respect to the solution) of C.I. Acid Red 52 (AR52) as the first fluorescent coloring material was dissolved into an aqueous solution (an organic solvent such as glycerin and purified water), followed by heating at 60° C. to completely vaporize water content, resulting in ink (hereinafter, referred to as evaporated ink).
The fluorescent emission spectra and excitation spectra of the first and second fluorescent coloring materials were measured using a fluorometer FP-750 (trade name; manufactured by JASCO Corporation). Each measurement sample was an ink from which water content was evaporated to remove the influence of water on the measurement.

maximum absorption wavelength ([1]; dye diluted 100,000-fold with purified water, spectrophotometer U-3200) [nm]	absorption peak wavelength ([1]; from FIGS. 5, 6, 12, listed as AR52)	fluorescent emission peak wavelength [3] [nm]	absorption peak wavelength ([1]; from FIGS. 5, 6, 12) [nm]	absorption spectrum range, visible light ([1]; from FIGS. 5, 6, 12) [nm]	Compound	content of fluorescent coloring material in ink causing concentration quenching of a printed fluorescent image [2] [% by mass]
565	565 nm and ~560 nm	600	–	–	CCN(CC)c1ccc2c(-c3ccc(S(=O)(=O)[O-])cc3S(=O)(=O)[O-])c3ccc(=[N+](CC)CC)cc-3oc2c1.[Na+] [C.I. Acid Red 52]	≥ 0.3
–	–	–	–	–	O=C([O-])c1c(Cl)c(Cl)c(Cl)c(Cl)c1-c1c2cc(Br)c(=O)c(Br)c-2oc2c(Br)c([O-])c(Br)cc12.[Na+].[Na+] [C.I. Acid Red 92]	≥ 2.0
–	–	530	490	≤ 525	O=C([O-])c1ccccc1-c1c2ccc(=O)cc-2oc2cc([O-])ccc12.[Na+].[Na+] [C.I. Acid Yellow 73, reference compound]	–
